Results from US12673052B2, “Combinations for the treatment of cancer” (Exelixis, Inc., priority 2020, dated 2026).

Columns and labels:
[1] = Toxicokinetics in 28-day repeat-dose toxicity study; format: in vivo, rats; conditions: for half-life: oral, read-out: Half-life (t1/2)
Protocol: In a 28-day repeat-dose toxicity study in rats dosed orally daily with Compound 1 at 1, 3 or 10 mg/kg, Compound 1 exposure (Cmax and AUC0-24) increased with the increase in dose level from 1-10 mg/kg/day. […] Accumulation ratio values ranged from 0.721-1.14 for Cmax and from 0.722-0.891 for AUC0-24. Consistent with the single-dose PK data, exposure in rats at steady-state on Day 28 for low doses appeared to be approximately 20-fold higher than that observed in dogs.

MET = MET (Homo sapiens, UniProt P08581); assay: Kinase catalytic activity assay, radioactive assay platform; format: biochemical; conditions: 10 μM ATP
Chain of MET (P08581 25-1390): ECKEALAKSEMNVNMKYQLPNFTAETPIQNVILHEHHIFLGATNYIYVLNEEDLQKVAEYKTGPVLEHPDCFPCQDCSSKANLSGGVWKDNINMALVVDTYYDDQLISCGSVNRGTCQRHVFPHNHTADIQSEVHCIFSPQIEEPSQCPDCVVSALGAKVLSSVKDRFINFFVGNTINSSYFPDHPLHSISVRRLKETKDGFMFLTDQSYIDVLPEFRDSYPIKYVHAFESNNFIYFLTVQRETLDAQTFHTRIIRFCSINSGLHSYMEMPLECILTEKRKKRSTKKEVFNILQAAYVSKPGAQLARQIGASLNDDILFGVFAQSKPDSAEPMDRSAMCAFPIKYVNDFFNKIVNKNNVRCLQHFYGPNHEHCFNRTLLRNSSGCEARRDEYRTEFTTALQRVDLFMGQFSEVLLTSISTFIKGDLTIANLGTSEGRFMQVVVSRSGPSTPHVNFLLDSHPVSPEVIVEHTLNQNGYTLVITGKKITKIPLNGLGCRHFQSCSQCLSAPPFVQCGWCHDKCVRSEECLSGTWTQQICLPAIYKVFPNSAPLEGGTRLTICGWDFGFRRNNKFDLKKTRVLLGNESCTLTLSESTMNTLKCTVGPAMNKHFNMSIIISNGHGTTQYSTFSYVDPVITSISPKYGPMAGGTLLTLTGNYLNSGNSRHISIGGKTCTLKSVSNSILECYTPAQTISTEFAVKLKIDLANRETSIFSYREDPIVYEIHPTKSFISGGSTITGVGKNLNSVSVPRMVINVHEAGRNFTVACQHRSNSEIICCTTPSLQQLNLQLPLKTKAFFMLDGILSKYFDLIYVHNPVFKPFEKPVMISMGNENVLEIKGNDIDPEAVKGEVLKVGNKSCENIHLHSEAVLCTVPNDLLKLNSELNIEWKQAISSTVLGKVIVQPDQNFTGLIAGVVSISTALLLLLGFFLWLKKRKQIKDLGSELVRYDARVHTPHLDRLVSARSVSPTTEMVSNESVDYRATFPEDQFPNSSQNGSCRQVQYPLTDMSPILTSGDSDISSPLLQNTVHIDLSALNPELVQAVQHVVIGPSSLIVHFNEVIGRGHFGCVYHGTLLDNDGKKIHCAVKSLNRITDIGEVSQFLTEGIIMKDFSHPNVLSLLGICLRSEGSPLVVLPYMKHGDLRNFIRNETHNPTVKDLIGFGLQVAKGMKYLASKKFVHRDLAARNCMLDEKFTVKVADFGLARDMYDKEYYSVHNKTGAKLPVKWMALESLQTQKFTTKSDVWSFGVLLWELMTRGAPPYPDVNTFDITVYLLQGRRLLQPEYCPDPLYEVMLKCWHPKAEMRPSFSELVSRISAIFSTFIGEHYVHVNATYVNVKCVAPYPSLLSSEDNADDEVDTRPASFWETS
Protocol: (§1) Compound 1 inhibitory activity was evaluated in multiple kinase catalytic activity assays using a radioactive assay platform. […] All in vitro biochemical assays were performed at 10 μM ATP concentrations.

VEGFR2 = VEGFR2 (Homo sapiens, UniProt P35968); assay: as above; format: biochemical; conditions: 10 μM ATP
Chain of VEGFR2 (P35968 20-1356): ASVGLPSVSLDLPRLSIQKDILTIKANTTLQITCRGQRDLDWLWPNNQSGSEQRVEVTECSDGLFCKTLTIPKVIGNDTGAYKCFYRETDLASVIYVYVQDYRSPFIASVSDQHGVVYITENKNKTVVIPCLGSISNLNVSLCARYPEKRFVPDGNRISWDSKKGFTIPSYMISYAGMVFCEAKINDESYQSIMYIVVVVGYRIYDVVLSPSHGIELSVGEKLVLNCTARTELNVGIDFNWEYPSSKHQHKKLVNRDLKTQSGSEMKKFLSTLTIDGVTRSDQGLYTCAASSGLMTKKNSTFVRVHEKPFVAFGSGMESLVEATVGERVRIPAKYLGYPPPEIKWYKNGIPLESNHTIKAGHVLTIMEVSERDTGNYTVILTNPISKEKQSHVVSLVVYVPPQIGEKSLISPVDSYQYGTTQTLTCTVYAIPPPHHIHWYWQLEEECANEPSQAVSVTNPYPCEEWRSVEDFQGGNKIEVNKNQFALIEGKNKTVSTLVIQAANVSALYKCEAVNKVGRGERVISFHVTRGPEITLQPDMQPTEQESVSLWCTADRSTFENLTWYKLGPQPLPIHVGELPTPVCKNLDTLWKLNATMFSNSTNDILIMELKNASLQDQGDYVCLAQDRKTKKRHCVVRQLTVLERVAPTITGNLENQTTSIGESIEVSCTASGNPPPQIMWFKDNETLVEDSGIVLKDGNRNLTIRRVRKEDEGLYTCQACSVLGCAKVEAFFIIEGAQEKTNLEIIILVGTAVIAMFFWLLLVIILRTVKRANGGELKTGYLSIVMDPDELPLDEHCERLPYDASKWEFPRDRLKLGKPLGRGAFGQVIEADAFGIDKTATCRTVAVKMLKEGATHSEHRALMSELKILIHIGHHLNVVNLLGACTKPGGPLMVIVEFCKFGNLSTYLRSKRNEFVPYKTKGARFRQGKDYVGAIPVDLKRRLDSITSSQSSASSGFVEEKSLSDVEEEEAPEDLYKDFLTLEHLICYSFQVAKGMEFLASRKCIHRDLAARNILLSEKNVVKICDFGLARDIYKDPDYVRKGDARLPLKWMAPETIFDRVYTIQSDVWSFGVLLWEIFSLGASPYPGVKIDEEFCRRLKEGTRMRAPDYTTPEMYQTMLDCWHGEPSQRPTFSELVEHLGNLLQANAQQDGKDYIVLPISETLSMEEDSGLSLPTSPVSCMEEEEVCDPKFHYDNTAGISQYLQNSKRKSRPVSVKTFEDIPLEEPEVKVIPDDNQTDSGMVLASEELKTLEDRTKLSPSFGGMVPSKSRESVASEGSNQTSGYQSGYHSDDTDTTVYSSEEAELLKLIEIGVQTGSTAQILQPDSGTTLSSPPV
Protocol: as §1

MER = MER (Homo sapiens, UniProt Q12866); assay: as above; format: biochemical; conditions: 10 μM ATP
Chain of MER (Q12866 21-999): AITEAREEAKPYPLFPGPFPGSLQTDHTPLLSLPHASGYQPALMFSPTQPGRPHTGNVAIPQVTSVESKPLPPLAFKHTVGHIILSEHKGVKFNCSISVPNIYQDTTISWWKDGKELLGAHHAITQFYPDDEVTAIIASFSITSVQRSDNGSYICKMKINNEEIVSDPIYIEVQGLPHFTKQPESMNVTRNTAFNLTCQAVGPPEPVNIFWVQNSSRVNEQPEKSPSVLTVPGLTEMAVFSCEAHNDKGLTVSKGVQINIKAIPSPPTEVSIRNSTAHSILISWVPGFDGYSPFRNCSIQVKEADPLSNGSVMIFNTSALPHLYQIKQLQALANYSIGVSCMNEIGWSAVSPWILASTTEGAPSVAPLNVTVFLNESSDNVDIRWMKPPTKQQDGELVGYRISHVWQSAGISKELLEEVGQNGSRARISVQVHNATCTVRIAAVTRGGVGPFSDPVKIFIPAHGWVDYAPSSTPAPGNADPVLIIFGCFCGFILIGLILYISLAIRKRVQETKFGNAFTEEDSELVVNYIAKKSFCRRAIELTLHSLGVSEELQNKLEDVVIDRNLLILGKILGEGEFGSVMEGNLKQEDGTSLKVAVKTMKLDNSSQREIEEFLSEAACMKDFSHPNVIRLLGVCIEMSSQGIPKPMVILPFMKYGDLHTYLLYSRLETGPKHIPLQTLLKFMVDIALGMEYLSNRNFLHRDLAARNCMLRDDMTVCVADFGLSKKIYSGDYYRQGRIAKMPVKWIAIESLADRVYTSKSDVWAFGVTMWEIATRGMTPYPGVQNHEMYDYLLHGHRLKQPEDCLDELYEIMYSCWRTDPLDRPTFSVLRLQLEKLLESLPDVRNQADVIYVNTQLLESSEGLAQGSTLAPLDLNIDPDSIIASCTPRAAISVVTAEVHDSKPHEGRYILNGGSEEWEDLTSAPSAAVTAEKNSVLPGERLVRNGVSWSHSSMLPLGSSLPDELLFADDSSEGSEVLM
Protocol: as §1

AXL = AXL (Homo sapiens, UniProt P30530); assay: as above; format: biochemical; conditions: 10 μM ATP
Chain of AXL (P30530 26-894): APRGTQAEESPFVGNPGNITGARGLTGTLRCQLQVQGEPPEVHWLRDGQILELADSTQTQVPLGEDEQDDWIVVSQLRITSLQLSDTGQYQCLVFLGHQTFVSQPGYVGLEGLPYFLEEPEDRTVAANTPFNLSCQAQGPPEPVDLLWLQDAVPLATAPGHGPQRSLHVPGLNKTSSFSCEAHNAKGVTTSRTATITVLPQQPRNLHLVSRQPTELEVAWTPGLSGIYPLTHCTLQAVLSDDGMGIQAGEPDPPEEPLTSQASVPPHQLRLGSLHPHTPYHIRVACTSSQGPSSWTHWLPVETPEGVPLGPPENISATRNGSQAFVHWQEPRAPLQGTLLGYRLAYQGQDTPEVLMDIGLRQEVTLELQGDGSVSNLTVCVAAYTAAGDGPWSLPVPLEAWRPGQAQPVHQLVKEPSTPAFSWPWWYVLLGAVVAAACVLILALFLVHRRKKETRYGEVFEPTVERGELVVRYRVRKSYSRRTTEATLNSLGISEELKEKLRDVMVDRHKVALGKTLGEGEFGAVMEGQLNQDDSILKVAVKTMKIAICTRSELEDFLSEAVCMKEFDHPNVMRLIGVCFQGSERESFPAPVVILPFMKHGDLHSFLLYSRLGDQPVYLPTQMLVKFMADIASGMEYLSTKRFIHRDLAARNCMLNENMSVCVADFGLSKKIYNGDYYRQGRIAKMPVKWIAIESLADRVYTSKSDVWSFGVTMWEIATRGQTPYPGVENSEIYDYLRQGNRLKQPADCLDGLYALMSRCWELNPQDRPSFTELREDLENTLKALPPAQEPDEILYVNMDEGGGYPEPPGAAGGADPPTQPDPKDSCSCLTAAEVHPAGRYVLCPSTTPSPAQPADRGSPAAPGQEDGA
Protocol: as §1

[2] = Toxicokinetics in 28-day repeat-dose toxicity study; format: in vivo, dogs; conditions: for half-life: oral
Protocol: In a 28-day repeat-dose toxicity study in dogs dosed orally daily with Compound 1 at 2, 6 and 18 mg/kg, high variability in Compound 1 exposure was generally observed for all dose levels on Days 1 and 28. Across the dose range evaluated, the mean % CV for Cmax and AUC0-24 was 46.2-93.2% and 45.5-91%, respectively, on Day 1 and 39.3-53.9% and 36.2-51.1%, respectively, on Day 28.

SNU-5 = assay: Tumor growth inhibition in xenograft model; format: in vivo, CB.17 SCID mice
Protocol: (§2) Three human tumor cell lines, NCI-H441, MDA-MB-231, and SNU-5, were selected for use in tumor xenograft studies using athymic nude, NSG and CB.17 SCID mice, respectively. Pharmacodynamic modulation of MET phosphorylation was also measured in the NCI-H441 and SNU-5 xenografts. Tumor-bearing mice were orally dosed once-daily for 14 days (qd×14), and the tumors were resected and processed for MET phosphorylation analysis by Western blot. […]

[3] = Single-dose plasma PK, IV and oral (PEG 400:EtOH:RO water); format: in vivo, rats
Protocol: (§3) Plasma PK of Compound 1 was characterized in rats and beagle dogs. Toxicokinetic (TK) evaluations of oral Compound 1 were evaluated in repeat-dose studies in rats and dogs. Plasma protein binding was determined in mouse, rat, dog, monkey, and human plasma in vitro. Biotransformation and metabolite profiling of Compound 1 were investigated in vitro using mouse, rat, dog, monkey, and human liver microsomal fractions and hepatocytes and in vivo in rats and dogs. P-glycoprotein (P-gp) and breast cancer resistance protein (BCRP) transporter interaction studies, in vitro experiments evaluating cytochrome P450 (CYP) induction and inhibition by Compound 1, and CYP and glucuronosyltransferase (UGT) substrate specificity studies of Compound 1 were also performed.
The PK and TK of Compound 1 were assessed in rats and dogs after intravenous (IV; only single dose PK) and oral (PO) administration of Compound 1 in formulations prepared in polyethylene glycol 400 (PEG 400): ethanol (EtOH): reverse osmosis water (RO Water) (45:5:50 v/v/v).
Median time to maximum plasma concentration (Tmax) occurred at approximately 2-3 hours in rats and dogs.
The mean plasma t1/2, z values were approximately 9 hours in rats and 4 hours in dogs. Interspecies scaling based on body weight to predict PK parameters in humans could not be performed because dogs (larger species) cleared Compound 1 faster than rats (smaller species). Therefore, the human PK was projected based on one species (rat). […] This apparent clearance value (CL/F) was used to predict steady-state exposure (AUC and average plasma concentration [Cavg]) in humans for the proposed first-in-human (FIH) starting dose for Study Compound 1-001.

MC38 tumor = assay: Tumor microvessels by CD31 staining in MC38 tumor-bearing animals; format: in vivo, murine
Protocol: MC38 tumor-bearing animals were treated with a range of Compound 1 doses (PO, qd; 3 mg/kg, 10 mg/kg, 30 mg/kg Compound 1) for 5 days. Tumors were analyzed for the presence of tumor microvessels by CD31 staining. FIG. 1A and FIG. 1B compare the tumor microvessels after administration of different doses of Compared 1 with vehicle.

[4] = GLP safety pharmacology: neurobehavioral and respiratory; format: in vivo, rats; conditions: single oral doses as high as 60 mg/kg; within 24 hours postdose
Protocol: The nonclinical toxicity of Compound 1 was characterized in dose range-finding 7-day and definitive 28-day repeat-dose studies in rats and dogs, and in in vitro bacterial and mammalian genotoxicity bioassays. Compound 1 was also evaluated in definitive neurobehavioral, respiratory and cardiovascular safety pharmacology studies.

CYP3A4 = assay: CYP/UGT substrate specificity (recombinant Supersomes, chemical inhibitors in human liver microsomes); format: in vitro ADME
Protocol: as §3

CYP2C9 = assay: as above; format: in vitro ADME
Protocol: as §3

UGT1A1 = target: T1, UGT1A1 (Homo sapiens, UniProt P22309); assay: as above; format: in vitro ADME
T1 construct: purchased; host or cells: recombinant Supersomes; human liver microsomes
T1 sequence (P22309 26-533): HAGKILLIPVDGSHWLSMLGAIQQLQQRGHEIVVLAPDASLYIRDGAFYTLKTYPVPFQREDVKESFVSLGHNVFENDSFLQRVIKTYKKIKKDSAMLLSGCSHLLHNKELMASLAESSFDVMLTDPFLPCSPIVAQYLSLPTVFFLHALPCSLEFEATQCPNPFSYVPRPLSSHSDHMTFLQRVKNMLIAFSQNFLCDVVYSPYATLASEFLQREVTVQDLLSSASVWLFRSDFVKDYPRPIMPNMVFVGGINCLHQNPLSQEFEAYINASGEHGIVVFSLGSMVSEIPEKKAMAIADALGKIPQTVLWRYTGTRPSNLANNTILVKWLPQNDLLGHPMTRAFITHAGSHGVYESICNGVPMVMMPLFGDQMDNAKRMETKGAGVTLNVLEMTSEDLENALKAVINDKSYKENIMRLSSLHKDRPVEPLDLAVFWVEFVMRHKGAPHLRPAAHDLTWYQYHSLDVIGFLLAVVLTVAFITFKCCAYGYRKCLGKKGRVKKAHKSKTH
Protocol: as §3

CYP2B6 = assay: as above; format: in vitro ADME
Protocol: as §3

[5] = In vitro plasma protein binding; format: in vitro ADME, monkey
Protocol: as §3
Compound 1 (10 μM) was 97.2 and 97.5% protein bound in monkey and human plasma, respectively.

NCI-H441 = assay: Tumor growth inhibition in xenograft model; format: in vivo, athymic nude mice
Protocol: as §2

[6] = Day 28 vs Day 1, 1-10 mg/kg/day
[7] = 10 mg/kg qd × 14 oral, p-value <0.0001

## CNC(=O)c1cc2c(Oc3ccc(NC(=O)C4(C(=O)Nc5ccc(F)cc5)CC4)cc3)ccnc2cc1OC [Compound 1, 1-N′-(4-Fluorophenvl)-1-N-[4-[7-methoxy-6-(methylcarbamovl)quinolin-4-yl]oxyphenyl]cyclopropane-1,1-dicarboxamide]
[1]; 28-day study
  Sex differences in mean Cmax and AUC values: less than 2 fold
[1]; Day 28, dose-normalized AUC0-24, ss, higher in rats
  steady-state exposure in rats relative to dogs: approximately 20 fold
[1]; [6]
  Accumulation ratio for AUC0-24: 0.722-0.891
  Accumulation ratio for Cmax: 0.721-1.14
[1]; both sexes, rat, plasma, Day 1
  half-life: 3.51 to 3.7 h
[1]; both sexes, rat, plasma, Day 28
  half-life: 6.7 to 8.97 h
[1]; both sexes, rat, plasma, oral daily 1, 3 or 10 mg/kg, Days 1 and 28
  Tmax: 2 to 8 h
MET
  IC50: 3 nM
VEGFR2
  IC50: 15 nM
MER
  IC50: 0.6 nM
AXL
  IC50: 5.8 nM
[2]; 18 mg/kg dose level
  mean accumulation ratio for AUC0-24: 0.874
  mean accumulation ratio for Cmax: 0.891
[2]; 2 and 6 mg/kg dose levels
  mean accumulation ratio for AUC0-24: 1.57-3.38
  mean accumulation ratio for Cmax: 1.67-4.75
[2]; 28-day study
  Sex differences in mean Cmax and AUC0-24 values: less than 2 fold
[2]; both sexes, dog, plasma, Day 1
  half-life: 4.57 to 6.29 h
[2]; both sexes, dog, plasma, Day 28
  half-life: 3.96 to 5.23 h
[2]; both sexes, dog, plasma, oral gavage 2, 6 and 18 mg/kg, Days 1 and 28, read-out: median Tmax
  Tmax: 2 h
SNU-5; 3 mg/kg qd × 14 oral, p-value 0.0052
  TGI (%): 54.2%
SNU-5; [7]
  TGI (%): 94.7%
[3]; rat, plasma, po, 0.09-0.27 mg/kg, read-out: Oral absolute bioavailability
  bioavailability: 62 to 77%
[3]; rat, plasma, after oral administration, read-out: terminal phase half-life (t1/2, z)
  half-life: 4.5 to 5.3 h
[3]; rat, plasma, single oral dose, read-out: Median time to maximum plasma concentration (Tmax)
  Tmax: 2 to 3 h
[3]; rat, plasma, single-dose IV 0.09-0.27 mg/kg, read-out: mean plasma clearance (CL) (converted)
  clearance: 0.39 mL/min/kg
[3]; rat, plasma, single-dose IV, read-out: mean plasma t1/2, z (converted)
  half-life: ~9 h
[3]; rat, plasma, single-dose IV, read-out: mean volume of distribution at steady-state (Vss)
  Vd: 0.167 L/kg
[3]; single oral doses 0.09-0.27 mg/kg
  increase of exposure (Cmax and AUC0-inf) with dose: approximately dose proportionally
MC38 tumor; 30 mg/kg PO qd 5 days, vehicle 26.9
  average vessel number (CD31 staining): 17.6
MC38 tumor; 3, 10, 30 mg/kg PO qd 5 days
  presence of tumor microvessels: Dose-dependent decreases
[4]
  neurobehavioral and respiratory system effects: no adverse neurobehavioral effects or toxicologically significant respiratory system effects
CYP3A4
  substrate of enzyme: sensitive substrate
CYP2C9
  substrate of enzyme: weaker substrate
UGT1A1
  substrate of enzyme: not to be a substrate
CYP2B6
  substrate of enzyme: not to be a substrate
[5]; 10 μM
  protein bound: 97.2%
[5]; monkey, plasma, 0.2 and 1 μM
  fraction unbound: < 0.01
NCI-H441; 3 mg/kg qd × 14 oral, p-value 0.0115
  TGI (%): 63.3%
NCI-H441; [7]
  TGI (%): regression
